Measured values: article PMC7833758, “Characterization of fructooligosaccharide metabolism and fructooligosaccharide-degrading enzymes in human commensal butyrate producers” (Gut Microbes, 2021)

Biological target: T1, R.intestinalis-GH32 (Roseburia intestinalis, UniProt C7G9C0)
T1 construct: gene sacC; expressed from pET28a in E. coli BL21(DE3), cell-free extract; intracellular; cluster 3, only GH32 of the strain
T1 sequence (C7G9C0 1-563): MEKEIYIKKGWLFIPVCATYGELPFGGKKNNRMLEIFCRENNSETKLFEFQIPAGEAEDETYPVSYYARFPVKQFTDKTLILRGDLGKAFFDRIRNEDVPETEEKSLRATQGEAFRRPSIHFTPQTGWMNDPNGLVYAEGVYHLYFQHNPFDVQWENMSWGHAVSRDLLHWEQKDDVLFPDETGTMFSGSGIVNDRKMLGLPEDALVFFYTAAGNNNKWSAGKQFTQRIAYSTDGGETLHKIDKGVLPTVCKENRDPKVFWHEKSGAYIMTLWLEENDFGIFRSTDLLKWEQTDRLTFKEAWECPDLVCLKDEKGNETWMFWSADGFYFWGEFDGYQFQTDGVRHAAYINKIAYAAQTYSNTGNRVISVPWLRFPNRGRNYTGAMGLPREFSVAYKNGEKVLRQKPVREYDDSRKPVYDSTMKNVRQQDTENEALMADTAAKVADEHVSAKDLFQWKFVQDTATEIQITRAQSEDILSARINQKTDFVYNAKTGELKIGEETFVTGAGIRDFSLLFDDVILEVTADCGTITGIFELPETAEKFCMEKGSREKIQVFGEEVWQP
Test: degradation by E. coli cell-free extract
Assay type: biochemical

Row | Compound | degradation by E. coli cell-free extract
1 | OC[C@H]1O[C@@](CO)(OC[C@@]2(O[C@H]3O[C@H](CO)[C@@H](O)[C@H](O)[C@H]3O)O[C@H](CO)[C@@H](O)[C@@H]2O)[C@@H](O)[C@@H]1O [kestose] | cell-free extracts containing R.intestinalis-GH32
2 | OC[C@H]1O[C@@](CO)(OC[C@@]2(OC[C@@]3(O[C@H]4O[C@H](CO)[C@@H](O)[C@H](O)[C@H]4O)O[C@H](CO)[C@@H](O)[C@@H]3O)O[C@H](CO)[C@@H](O)[C@@H]2O)[C@@H](O)[C@@H]1O [nystose] | cell-free extracts containing R.intestinalis-GH32
